{"source": "patent EP0765662A1", "about": "“HIV GROWTH INHIBITORY COMPOSITION” (Kochi, Mutsuyuki, priority 1994, dated 1995)", "test_system": "HIVBRU", "assay": "Formation of giant cells from HIV-infected Molt-4 cells (mixed cultivation, microscopic observation)", "assay_type": "cell-based", "conditions": "mixed cultivation of HIV-infected and HIV-non-infected Molt-4 cells; 20 hours of the cultivation; read-out: concentration of SBA that can inhibit the formation of the giant cells", "procedure": "In the tests above, the replication of the viral particles of HIV was examined in terms of the amount of the p24 antigen protein produced and appearing in the culture supernatant from the cultivated cells. Thus, the amount of the p24 antigen produced was measured periodically over 6 days after the A3.01 cells were infested with HIV. It was then observed that in the absence of SBA, the replication of the viral particles of HIV was induced in the A3.01 cells by stimulation with 10 units/ml of TNF-α added. […] Thus, the effective amount of SBA has the activity to inhibit the replication of the viral particles of HIV within the cells to an extent as same as AZT, and from this it is expected that SBA is useful similarly to AZT for the therapeutic treatments of AIDS. (d) Tests for evaluating an inhibitory activity of SBA to the formation of giant cells from HIV-infected Molt-4 cells In a similar manner to that in the above Test (c), Molt-4 cells (a CD4-positive human T-cell strain) were infected with AIDS virus, HIVBRU. Thereafter, The HIV-infected Molt-4 cells were mixed with such Molt-4 cells which had no HIV-infection. And the mixture of these cells were cultivated at a high density of the mixed cells in the above-mentioned improved RPM1-1640 medium containing SBA at its different concentrations. […]", "note": "Structures can show the parent of a compound that is named as a salt.", "data": [{"smiles": "O=C1O[C@H]([C@@H]2COC(c3ccccc3)O2)C(O)=C1O", "note": "(stereo partly drawn) [SBA, 5,6-O-benzylidene-L-ascorbic acid mono-sodium salt]", "values": [{"measurement": "minimal effective concentration", "result": "≥ 10", "unit": "µg/mL"}]}]}
